# According to EP3661951B1, “GENES AND METHODS FOR BIOTECHNOLOGICAL PRODUCTION AND COMPARTMENTALIZATION OF HIGH ADDED VALUE APOCAROTENOIDS” (Agenzia Nazionale Per Le Nuove Tecnologie, L'Energia E Lo …, priority 2017, dated 2019):
# Key:
# [1] = tested on: Crocus sativus CsABCC1 transporter (SEQ ID NO 12); experiment: In vitro transport assay ("transportomics") with yeast microsomes, inhibition by Probenecid; assay type: biochemical; conditions: Probenecid 1 mM, microsomes pre-incubated 10 minutes at room temperature; saffron hydroalcoholic extract as substrate; net ATP-dependent transport after 15 minutes; S. cerevisiae ybt1 microsomes
# Experimental: (§1) A new in vitro assay was prepared, differing from the classical transportation assay wherein the vesicles are left to incubate for pre-established periods of time with the putative substrate, washed, lysed and the content analysed by liquid chromatography coupled to a UV/visible detector. With respect to the works existing in literature relating the in-vitro functional characterization of transporters, the present invention introduces the concept of "transportomics": the assay is based upon the transportation analysis, performed by LC-HRMS, of all molecules existing in the saffron extract. This approach, providing the use of a raw extract instead of commercial purified standards, allows to characterize the transportation even of molecules which are not commercially available; moreover, as it is based upon data obtained with high resolution mass spectrometry, rather than with photodiode series detector (PDA), the system is extremely sensitive and it allows to appreciate the transportation of low abundant metabolites.
# (§2) With this method, then, it was observed that the two ABCC transporters are capable of transporting different crocins apart from some flavonoids (figure 10b, black bars). […]
# [2] = tested on: Crocus sativus CsABCC2 transporter (SEQ ID NO 14); experiment: as above; assay type: biochemical; conditions: Probenecid 1 mM, microsomes pre-incubated 10 minutes at room temperature; saffron hydroalcoholic extract as substrate; net ATP-dependent transport after 15 minutes; S. cerevisiae ybt1 microsomes
# Experimental: as §1, §2
compound,measurement,setting,value
CCCN(CCC)S(=O)(=O)c1ccc(C(=O)O)cc1 [Probenecid],transportation of saffron metabolites (crocins) in presence of Probenecid inhibitor,[1],considerable transportation reduction
same,transportation of saffron metabolites (crocins) in presence of Probenecid inhibitor,[2],considerable transportation reduction
